Reference: article PMC9775061 (2022)

How the values were obtained:
[1] = tested on: complementary (CAG)3/(CUG)3 RNA duplex (rGG-(CAG)3-CC and rGG-(CUG)3-CC) (RNA, duplex) GGCAGCAGCAGCC/GGCUGCUGCUGCC; experiment: fluorescence turn-on (λex 300 nm); details: 300 mM NaCl; 20 mM MOPS pH 7.0; 10 µM DB-TPE, 1 eq. duplex; much weaker fluorescence, likely non-specific electrostatic
[2] = tested on: rGG-(CAG)6-CC (RNA, repeat) GGCAGCAGCAGCAGCAGCAGCC; experiment: fluorescence titration (turn-on, 463 nm, λex 300 nm); details: 300 mM NaCl; 20 mM MOPS pH 7.0; 10 µM DB-TPE; apparent; 1:1 model

- binding [1]: weak
- Kd [2]: 2000 nM
SMILES: CN(C)CCCNC(=N)c1ccc(C(=N)NCCCN(C)Cc2cn(Cc3ccc(C(=C(c4ccccc4)c4ccccc4)c4ccccc4)cc3)nn2)cc1
